Experimental data reported in patent US20100168112A1, “2-Substituted and 4-substituted aryl nitrone compounds” (RENOVIS, INC., priority 2004, published 2010).

Experiments:
[1] = Pharmacokinetic evaluation following intravenous and oral administration in rats; type: in vivo; conditions: male, Sprague-Dawley; for Cmax / Tmax / bioavailability: 5 mg/kg; for Cmax: rat plasma; for Cmax / Tmax: oral gavage, 2 mg/mL at 2.5 mL/kg; for clearance / Vd / Tmax / bioavailability / half-life: plasma, rat; for clearance / Vd / half-life: 1 mg/kg; for clearance / Vd: intravenous administration, 1 mg/mL at 1.0 mL/kg; for clearance: read-out: CI (clearance) (converted); for Vd: read-out: Vd (volume of distribution); for bioavailability: po 2 mg/mL at 2.5 mL/kg vs iv 1 mg/mL at 1.0 mL/kg, dose-normalized, read-out: F (%) oral bioavailability; for half-life: intravenous, read-out: T1/2 elimination half life (converted)
Outline: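 Male Sprague-Dawley rats, fasted, dosed iv (1 mg/mL formulation, 1.0 mL/kg, jugular or tail vein) or by oral gavage (2 mg/mL suspension, 2.5 mL/kg). Plasma sampled from 2 min to 480 min, some to 24 h, and quantified by LC-MS/MS (MRM). Parameters from noncompartmental analysis.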

[2] = DPPH free radical-scavenging/antioxidant assay; type: biochemical; conditions: 50 μM DPPH in 80% methanol; 24 h time point; read-out: EC50 (concentration at which a compound reduces by 50% the peak absorbance of DPPH at 520 nm)
Outline: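 Compounds diluted 100-fold from DMSO stocks into 50 μM DPPH in 80% methanol; absorbance at 520 nm followed kinetically to steady state, with the 24 h reading used. EC50 interpolated from OD520 versus concentration; Trolox, BHA, PBN and S-PBN as positive controls, DMSO as vehicle.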

Row | Compound | Cmax [1] | clearance [1] | Vd [1] | Tmax [1] | bioavailability [1] | half-life [1] | EC50 [2]
1 | CC(C)(C)/[N+]([O-])=C/c1ccc(S(N)(=O)=O)cc1 [Compound 20, N-(tert-Butyl)-C-[4-(sulfamoyl)phenyl]nitrone] | 796 ng/mL | 12.8 mL/min/kg | 4.08 L/kg | 22.2 min | 55.4% | 220 min | > 1000 µM
2 | CC(C)(C)/[N+]([O-])=C/c1ccc(S(=O)(=O)N2CCOCC2)cc1 [Compound 23, N-(tert-Butyl)-C-[4-(morpholine-4-sulfonyl)phenyl]nitrone] | 1120 ng/mL | 28 mL/min/kg | 3.78 L/kg | 25.2 min | 65.3% | 94.8 min | > 1000 µM
3 | CC(C)(C)/[N+]([O-])=C/c1ccc(S(=O)(=O)Nc2cccnc2)cc1 [Compound 26, N-(tert-Butyl)-C-[4-(pyridin-3-ylsulfamoyl)phenyl]nitrone] | 27300 ng/mL | 0.167 mL/min/kg | 0.09 L/kg | 25.2 min | 43.4% | 262 min | > 1000 µM
4 | CC(C)(C)/[N+]([O-])=C/c1ccc(S(C)(=O)=O)cc1 [Compound 62, N-tert-Butyl-C-[4-(methanesulfonyl)phenyl]nitrone] | 4630 ng/mL | 1 mL/min/kg | 0.53 L/kg | 24.6 min | 63.4% | 349 min | > 1000 µM
5 | CC(C)(C)/[N+]([O-])=C/c1ccc(S(C)(=O)=O)cc1S(C)(=O)=O [Compound 63, N-tert-Butyl-C-(2,4-bis-methanesulfonylphenyl)nitrone] | 4130 ng/mL | 3.17 mL/min/kg | 0.45 L/kg | 45 min | 95.9% | 99.6 min | 500 to 1000 µM
6 | CCS(=O)(=O)c1ccc(/C=[N+](\[O-])C(C)(C)C)c(S(=O)(=O)CC)c1 [Compound 64, N-tert-Butyl-C-(2,4-bis-ethanesulfonylphenyl)nitrone] | 2490 ng/mL | 13.8 mL/min/kg | 0.67 L/kg | 39.6 min | 91.3% | 33 min | 500 to 1000 µM
7 | CC(C)(C)/[N+]([O-])=C/c1ccccc1S(C)(=O)=O [Compound 66, N-tert-Butyl-C-(2-methanesulfonylphenyl)nitrone] | 4730 ng/mL | 3 mL/min/kg | 0.63 L/kg | 60 min | 70.3% | 143 min | 500 to 1000 µM
